Measured values reported in US8552176B2 (priority 2010, dated 2013).

Assays:
[1] = system: UACC-62; experiment: NCI 60 Human Tumor Cell Line Anticancer Screen; type: cell-based; details: UACC-62, Melanoma
[2] = system: DU-145; experiment: cells; type: cell-based, human; details: read-out: GI50 DU-145 prostate
[3] = system: OVCAR-4; experiment: NCI 60 Human Tumor Cell Line Anticancer Screen; type: cell-based; details: OVCAR-4, Ovary
[4] = system: KM12; experiment: NCI 60 Human Tumor Cell Line Anticancer Screen; type: cell-based; details: KM12, Colon
[5] = system: NCI-H322M; experiment: NCI 60 Human Tumor Cell Line Anticancer Screen; type: cell-based; details: Non-small cell lung
[6] = system: HS 578T; experiment: NCI 60 Human Tumor Cell Line Anticancer Screen; type: cell-based; details: Breast
[7] = system: K-562; experiment: NCI 60 Human Tumor Cell Line Anticancer Screen; type: cell-based; details: K-562, Leukemia
[8] = system: CAKI-1; experiment: NCI 60 Human Tumor Cell Line Anticancer Screen; type: cell-based; details: CAKI-1, Renal
[9] = system: MDA-MB-435; experiment: NCI 60 Human Tumor Cell Line Anticancer Screen; type: cell-based; details: MDA-MB-435, Melanoma
[10] = system: SR; experiment: NCI 60 Human Tumor Cell Line Anticancer Screen; type: cell-based; details: Leukemia
[11] = system: LOX IMVI; experiment: NCI 60 Human Tumor Cell Line Anticancer Screen; type: cell-based; details: Melanoma
[12] = system: OVCAR-5; experiment: NCI 60 Human Tumor Cell Line Anticancer Screen; type: cell-based; details: OVCAR-5, Ovary
[13] = system: SF-268; experiment: NCI 60 Human Tumor Cell Line Anticancer Screen; type: cell-based; details: SF-268, CNS
[14] = system: EKVX; experiment: NCI 60 Human Tumor Cell Line Anticancer Screen; type: cell-based; details: Non-small cell lung
[15] = system: MCF7; experiment: cells; type: cell-based, human; details: read-out: GI50 MCF7 breast
[16] = system: HOP-62; experiment: NCI 60 Human Tumor Cell Line Anticancer Screen; type: cell-based; details: HOP-62, Non-small cell lung
[17] = system: OVCAR-8; experiment: NCI 60 Human Tumor Cell Line Anticancer Screen; type: cell-based; details: OVCAR-8, Ovary
[18] = system: IGROV1; experiment: NCI 60 Human Tumor Cell Line Anticancer Screen; type: cell-based; details: IGROV1, Ovary
[19] = system: MDA-MB-231; experiment: NCI 60 Human Tumor Cell Line Anticancer Screen; type: cell-based; details: MDA-MB-231, Breast
[20] = system: TK-10; experiment: NCI 60 Human Tumor Cell Line Anticancer Screen; type: cell-based; details: TK-10, Renal
[21] = system: T-47D; experiment: NCI 60 Human Tumor Cell Line Anticancer Screen; type: cell-based; details: Breast
[22] = system: SF-539; experiment: NCI 60 Human Tumor Cell Line Anticancer Screen; type: cell-based; details: SF-539, CNS
[23] = system: HL-60 (TB); type: cell-based, human
[24] = system: MCF7; experiment: NCI 60 Human Tumor Cell Line Anticancer Screen; type: cell-based; details: MCF7, Breast
[25] = system: NCI/ADR-RES; experiment: NCI 60 Human Tumor Cell Line Anticancer Screen; type: cell-based; details: Ovary
[26] = system: MDA-MB-468; experiment: NCI 60 Human Tumor Cell Line Anticancer Screen; type: cell-based; details: MDA-MB-468, Breast
[27] = system: M14; experiment: NCI 60 Human Tumor Cell Line Anticancer Screen; type: cell-based; details: M14, Melanoma
[28] = system: CCRF-CEM; experiment: NCI 60 Human Tumor Cell Line Anticancer Screen; type: cell-based; details: Leukemia
[29] = system: SNB-19; experiment: NCI 60 Human Tumor Cell Line Anticancer Screen; type: cell-based; details: SNB-19, CNS
[30] = system: A498; experiment: NCI 60 Human Tumor Cell Line Anticancer Screen; type: cell-based; details: A498, Renal

CON(CCCCc1ccc(N(CCCl)CCCl)cc1)C1OCC(O)C1O (stereo not shown) [Compound 60]
GI50 [1]: 1.69 µM
Inhibition at 10 μM ([1]; 10 μM): 52.06%
GI50 [2]: 1.8 ± 0.1 µM
GI50 [3]: 29.2 µM
Inhibition at 10 μM ([3]; 10 μM): 77.16%
GI50 [4]: 30 µM
Inhibition at 10 μM ([4]; 10 μM): 97.57%
GI50 [5]: > 100 µM
Inhibition at 10 μM ([5]; 10 μM): 99.02%
GI50 [6]: 24.7 µM
Inhibition at 10 μM ([6]; 10 μM): 139.25%
Inhibition at 10 μM [7]: 88.55%
GI50 [8]: 11.5 µM
Inhibition at 10 μM ([8]; 10 μM): 13.59%
GI50 [9]: 21.1 µM
Inhibition at 10 μM ([9]; 10 μM): 83.03%
GI50 [10]: 0.386 µM
Inhibition at 10 μM ([10]; 10 μM): 48.67%
GI50 [11]: 8.61 µM
Inhibition at 10 μM ([11]; 10 μM): 54.82%
Inhibition at 10 μM [12]: 111.11%
GI50 [13]: 5.75 µM
Inhibition at 10 μM ([13]; 10 μM): 67.83%
GI50 [14]: 37.9 µM
Inhibition at 10 μM ([14]; 10 μM): 91.24%
GI50 [15]: 1.8 ± 0.1 µM
GI50 [16]: 8.28 µM
Inhibition at 10 μM ([16]; 10 μM): 73.20%
GI50 [17]: 9.13 µM
Inhibition at 10 μM ([17]; 10 μM): 68.13%
GI50 [18]: 1.21 µM
GI50 [19]: 1.39 µM
Inhibition at 10 μM ([19]; 10 μM): 87.54%
GI50 [20]: 31.7 µM
Inhibition at 10 μM ([20]; 10 μM): 97.20%
GI50 [21]: 6.37 µM
Inhibition at 10 μM ([21]; 10 μM): 48.01%
GI50 [22]: 8.8 µM
Inhibition at 10 μM ([22]; 10 μM): 51.79%
GI50 [23]: 1.88 µM
Inhibition at 10 μM [23]: 68.31%
GI50 [24]: 4.51 µM
Inhibition at 10 μM ([24]; 10 μM): 32.40%
GI50 [25]: 4.61 µM
Inhibition at 10 μM ([25]; 10 μM): 61.54%
GI50 [26]: 7.25 µM
Inhibition at 10 μM ([26]; 10 μM): 43.87%
GI50 [27]: 9.25 µM
Inhibition at 10 μM ([27]; 10 μM): 67.23%
GI50 [28]: 2.36 µM
Inhibition at 10 μM ([28]; 10 μM): 21.19%
GI50 [29]: 33.4 µM
Inhibition at 10 μM ([29]; 10 μM): 65.81%
GI50 [30]: 21.8 µM
Inhibition at 10 μM ([30]; 10 μM): 114.47%
